The assay has as its system HIV-1 (NL4-3 strain). Description: Assay for inhibition of HIV replication (VIKING; MT4-gag-GFP reporter cell line). Format: cell-based. As to the method:
This assay is a kinetic assay that employs a reporter cell line (MT4-gag-GFP) to quantify the number of new cells infected in each round of replication.
MT4-GFP cells (250,000 cells/ml) were bulk-infected with HIV-1 (NL4-3 strain) at low multiplicity of infection (MOI) in RPMI cell culture medium+10% FBS for 24 hours. Cells were then washed once in RPMI cell culture medium+10% FBS and resuspended in RPMI cell culture medium+0% or 10% or 100% normal human serum (NHS). Test compounds were serial-diluted in DMSO on an ECHO® liquid handler. The infected MT4-GFP cells were added to a 384-well poly-D-lysine coated black plate with clear bottom in which the diluted test compounds were placed. The cells were seeded at 8,000 cells per well and the final DMSO concentration was 0.4%. The infected cells (Green GFP cells) were quantified at both 24 and 48 hours post incubation using Acumen eX3. Viral reproductive ratio (R0) was determined using the number of infected cells at 48 hours divided by the number of infected cells at 24 hours. Percent viral growth inhibition was calculated by [1−(R−Rtripledrug)/(RDMSO−Rtripledrug)]*100. Compound potency IP or IC50 was determined by a 4-parameter dose response curve analysis. In vitro potency in the cell-based assay in the abscence of normal human serum (NHS) and the presence of 100% NHS.

Where [1] appears, read: MT4-GFP cells infected with HIV-1 NL4-3, 0% normal human serum (NHS), read-out: VIKING IP50 (nM) with 0% NHS.
Setting [2] is: MT4-GFP cells infected with HIV-1 NL4-3, 100% normal human serum (NHS), read-out: VIKING IP50 (nM) with 100% NHS.
[3] abbreviates: Human immunodeficiency virus 1, NL43, MT4-GFP cells infected with HIV-1 NL4-3, 0% normal human serum (NHS), read-out: VIKING IP50 (nM) with 0% NHS.
[4] abbreviates: Human immunodeficiency virus 1, NL43, MT4-GFP cells infected with HIV-1 NL4-3, 100% normal human serum (NHS), read-out: VIKING IP50 (nM) with 100% NHS.

Read-outs that look alike come from different tables or passages of the source.

Take `CC1C2C3CCc4c(C(=O)NCc5cccc(Cl)c5F)c(=O)c(O)c(n43)C(=O)N2C[C@@H]1C` (stereo partly drawn) [Compound 102]: the IC50 is, setting by setting: under setting [1], 1.05 nM; under setting [2], 579 nM.
In the case of `O=C1c2c(O)c(=O)c(-c3cnn(Cc4ccc(F)cc4F)c3)c3n2C(CC3)C2OCCN12` (stereo not drawn) [Compound 46], the IC50 runs as follows: under setting [3], 34.5 nM; under setting [4], 222 nM.
On to `COC1CC2C3OCCN3C(=O)c3c(O)c(=O)c(C(=O)NCc4ccc(F)cc4F)c1n32` (stereo not drawn) [Compound 72], for which the IC50 amounted to 0.754 nM under setting [1] and 8000 nM under setting [2].
For `C[C@H]1CN(S(C)(=O)=O)C2C3CCc4c(C(=O)NCc5cccc(Cl)c5F)c(=O)c(O)c(n43)C(=O)N21` (stereo partly drawn) [Compound 116], the IC50 reads like this: under setting [1], 4.57 nM; under setting [2], 195 nM.
Turning to `C[C@H]1COC2C3CCc4c(C(=O)NCc5cccc(Cl)c5F)c(=O)c(O)c(n43)C(=O)N21` (stereo partly drawn) [Compound 30], the IC50 under setting [3] is 0.536 nM and the IC50 under setting [4] amounted to 838 nM.
In the same order, the values of `C[C@@H]1CCOC2C3CCc4c(C(=O)NCc5ccc(F)cc5F)c(=O)c(O)c(n43)C(=O)N21` (stereo partly drawn) [Compound 60] are 0.934 nM and 27.6 nM.

These data come from patent US11358711B2, “Tetracyclic heterocycle compounds useful as HIV integrase inhibitors” (Merck Sharp & Dohme Corp., priority 2019, dated 2022).
